Experimental data published in patent publication US20020010158A1, “Cardioprotective phosphonates and malonates” (priority 2000, published 2002).

What was measured:
Type in all cases: in vivo, rat
[1] = tested on: coronary artery ligated rats (cardiac hypertrophy); assay: Cardiac hypertrophy after coronary artery ligation; conditions: rats 21 days after coronary ligation, 10 mg/kg daily by gastric tube
Description: (§1) Myocardial infarction was produced in male Sprague-Dawley rats (300-400 g) by occlusion of the left coronary artery. The rats were housed in clear cages in a temperature (19-22° C.) and humidity (50-55% RH) controlled room on a 12 hour light-dark cycle. Food and water were supplied ad libitum. Rats were anaesthized with 1-5% isoflurane in 100% O2 (2 L/minute flow rate). The skin was incised along the left sternal border and the 4th rib was cut proximal to the sternum and a retractor was inserted. The pericardial sac was opened and the heart externalized. The left anterior descending coronary artery was ligated approximately 2 mm from its origin on the aorta using a 6-0 silk suture. The heart was then repositioned in the chest and the incision closed via purse-string sutures. Sham-operated rats underwent identical treatment except that the artery was not ligated. Mortality due to surgery was less than 1%. All animals were allowed to recover, receiving food and water ad libitum for 21 days. Hemodynamic and histological assessments were made.
(§2) Rats were divided at random into five groups: sham operated, coronary artery ligated (untreated), coronary artery ligated (pyridoxal-5′-phosphate (P5P) treatment), coronary artery ligated (compound VII treated) and coronary artery ligated (compound XI treated). Treatment with P5P, compound VII and compound XI began 1 hour after coronary occlusion (or sham operation), and continued for 21 days. P5P, compound VII or compound XI (10 mg/kg) were administered daily (9 AM) by gastric tube. This dosage was chosen based on previous experience with P5P.
Hypertrophy is a physiological condition of enlargement (increased mass) due to increased stress. Cardiac hypertrophy is assessed by calculating the heart to body mass ratio.

[2] = tested on: coronary artery ligated rats (myocardial infarction); assay: Coronary artery ligation, mortality; conditions: male Sprague-Dawley rats, 10 mg/kg daily by gastric tube from 1 hour after occlusion
Description: as §1, with “made. […]” for “made.”
as §2
Mortality in all groups occurred only within the first 24 h after coronary ligation. While in the untreated group 50% of the rats died, the mortality rate dropped to 17-25% in the treated groups (Table I).

[3] = tested on: coronary artery ligated rats (left ventricle hemodynamics); assay: Hemodynamic changes after coronary artery ligation; conditions: rats 21 days after coronary ligation; 10 mg/kg daily by gastric tube; mean±SD
Description: as §1, with “Sham-operated rats underwent identical treatment except that the artery was not ligated. Mortality due to surgery was less than 1%. All animals were allowed to recover, receiving food and water ad libitum for 21 days. Hemodynamic and histological assessments were made.” left out
The animals prepared as described in Example 29 were anaesthetized with an injected cocktail of ketamine hydrochloirde (60 mg/kg) and xylazine (10 mg/kg). […] The catheter was secured with a silk ligature around the artery, and various hemodynamic parameters including left ventricular systolic pressure (LVSP), left ventricular end diastolic pressure (LVEDP), rate of contraction (+dP/dt), and rate of relaxation (−dP/dt), were recorded and calculated with Acknowledge 3.1 software (Biopac Systems Inc.). The animals were allowed 5-10 minutes to stabilize, after which parameters were measured as averages over three readings.

Row | SMILES | Cardiac Hypertophy, Heart Weight/Body Weight [1] | Mortality (%) [2] | Total dead Rats [2] | Dead Rats 12 hr [2] | Dead Rats 24 hr [2] | Dead Rats 36 hr [2] | Dead Rats 48 hr [2] | Dead Rats 3 days [2] | LVSP (left ventricular systolic pressure) [3]
1 | Cc1ncc(C(O)P(=O)(O)O)c(CO)c1O (stereo not drawn) [MC-5723, (3-hydroxy-4-hydroxymethyl-2-methyl-5-pyridyl)hydroxymethyl phosphonic Acid] | 0.0031 ± 0.0004 |  |  |  |  |  |  |  | 
2 | Cc1ncc(C(O)P(=O)(O)O)c(CO)c1O (stereo not drawn) [compound VII, (3-hydroxy-4-hydroxymethyl-2-methyl-5-pyridyl)hydroxymethyl phosphonic Acid] | significant decrease in cardiac hypertrophy | 21% | 3 | 2 | 1 | 0 | 0 | 0 | 
3 | Cc1ncc(C(F)P(=O)(O)O)c(CO)c1O (stereo not drawn) [MC-5422, (3-hydroxy-4-hydroxymethyl-2-methyl-5-pyridyl)fluoromethyl phosphonic Acid] | 0.0032 ± 0.0002 |  |  |  |  |  |  |  | 
4 | Cc1ncc(COP(=O)(O)O)c(C=O)c1O [P5P, pyridoxal-5′-phosphate, reference compound] |  | 17% | 2 | 1 | 1 | 0 | 0 | 0 | 120.0 ± 10.6
5 | Cc1ncc(C(F)P(=O)(O)O)c(CO)c1O (stereo not drawn) [compound XI, (3-hydroxy-4-hydroxymethyl-2-methyl-5-pyridyl)fluoromethyl phosphonic Acid] | significant decrease in cardiac hypertrophy | 25% | 3 | 3 | 0 | 0 | 0 | 0 | 115.0 ± 12.1
